Data taken from ChEMBL document CHEMBL1201862, “PubChem BioAssay data set” (2004).
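In this assay, cells in 96-well plates receive the compound at five concentrations for 48 hours. Endpoints are linearly interpolated between the surrounding concentrations. GI50 is the concentration that inhibits growth by half.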 Calls of active or inactive are those of the source. No stated cut-off is given here; in the data, active = GI50 up to about 1.1 µM and inactive = higher.

How the values were obtained:
Experiment in all cases: inhibition of tumour cell growth, NCI panel, 48 h
NCI/ADR-RES = test system: NCI/ADR-RES
SF-268 = test system: SF-268
SNB-75 = test system: SNB-75
T47D = test system: T47D
MDA-MB-435 = test system: MDA-MB-435
RXF 393 = test system: RXF 393
NCI-H226 = test system: NCI-H226
NCI-H460 = test system: NCI-H460
A498 = test system: A498
M14 = test system: M14
OVCAR-8 = test system: OVCAR-8
SK-MEL-5 = test system: SK-MEL-5
UO-31 = test system: UO-31
RPMI-8226 = test system: RPMI-8226
HCT-15 = test system: HCT-15
HOP-62 = test system: HOP-62
KM12 = test system: KM12
HL-60 = test system: HL-60
SR = test system: SR

Row | SMILES | GI50 (NCI/ADR-RES) | GI50 (SF-268) | GI50 (SNB-75) | GI50 (T47D) | GI50 (MDA-MB-435) | GI50 (RXF 393) | GI50 (NCI-H226) | GI50 (NCI-H460) | GI50 (A498) | GI50 (M14) | GI50 (OVCAR-8) | GI50 (SK-MEL-5) | GI50 (UO-31) | GI50 (RPMI-8226) | GI50 (HCT-15) | GI50 (HOP-62) | GI50 (KM12) | GI50 (HL-60) | GI50 (SR)
1 | CCN(CC(=O)O)CC(=O)O | > 100 µM (inactive) | > 100 µM (inactive) | > 100 µM (inactive) | > 100 µM (inactive) | > 100 µM (inactive) | > 100 µM (inactive) | > 100 µM (inactive) | > 100 µM (inactive) | > 100 µM (inactive) | > 100 µM (inactive) | > 100 µM (inactive) | > 100 µM (inactive) | > 100 µM (inactive) | > 100 µM (inactive) | > 100 µM | > 100 µM (inactive) | > 100 µM (inactive) |  | 
2 | O=c1[nH]cnc2cccc(Cl)c12 | > 100 µM (inactive) | > 100 µM (inactive) | 65.2 µM (inactive) | > 100 µM (inactive) |  | > 100 µM (inactive) | > 100 µM (inactive) | > 100 µM (inactive) | > 100 µM (inactive) | > 100 µM (inactive) | > 100 µM (inactive) | > 100 µM (inactive) | > 100 µM (inactive) |  | > 100 µM | > 100 µM (inactive) | > 100 µM (inactive) | > 100 µM (inactive) | > 100 µM (inactive)
3 | C=C1C(=O)OC2/C=C(/CO)C3(O)CC(O)C(C)(CC(OC(=O)/C(C)=C/C)C12)O3 (configuration not stated) |  | 11 µM (inactive) | 39.2 µM (inactive) | 10.9 µM (inactive) | 9.42 µM (inactive) | 2.81 µM (inactive) | 18.5 µM (inactive) | 14.9 µM (inactive) | 20.9 µM (inactive) | 17.7 µM (inactive) | 7.66 µM (inactive) | 11.1 µM (inactive) | 20.4 µM (inactive) | 2.51 µM (inactive) | 7.57 µM | 49.3 µM (inactive) | 20.5 µM (inactive) | 6.21 µM (inactive) | 4.57 µM (inactive)
4 | Cc1ccsc1/C=N/Nc1ccccn1 | 45.3 µM (inactive) | > 100 µM (inactive) | 50.2 µM (inactive) | 60.7 µM (inactive) | 50.6 µM (inactive) | > 100 µM (inactive) | > 100 µM (inactive) |  | 55 µM (inactive) | 54 µM (inactive) | 66.1 µM (inactive) | 25.9 µM (inactive) | 71.3 µM (inactive) | 19.3 µM (inactive) | 60.1 µM | > 100 µM (inactive) | 35.6 µM (inactive) |  | 
5 | O=C1CCCCCCCCCCC1CN(Cc1ccccc1)Cc1ccccc1 (configuration not stated) |  | 40 µM (inactive) | 2.84 µM (inactive) | 19.1 µM (inactive) | 37.1 µM (inactive) | 15.4 µM (inactive) | 51.3 µM (inactive) |  |  | 48 µM (inactive) | 75.3 µM (inactive) | 13.1 µM (inactive) | 48.5 µM (inactive) | 22.2 µM (inactive) | 56.5 µM | > 100 µM (inactive) | 83.9 µM (inactive) | 23.9 µM (inactive) | 35.5 µM (inactive)
6 | CC(=O)Nc1ccc(S(=O)(=O)Nc2nc(-c3ccc(Cl)cc3)cc(N3N=C(c4ccc(Br)cc4)CC3c3ccccc3)n2)cc1 (configuration not stated) | 17.1 µM (inactive) |  |  |  | 7.45 µM (inactive) | 13.8 µM (inactive) | 12.9 µM (inactive) | 16.9 µM (inactive) |  | 18.1 µM (inactive) | 17.9 µM (inactive) |  | 15.4 µM (inactive) | 12.1 µM (inactive) | 15.7 µM | 16.3 µM (inactive) | 10.7 µM (inactive) | 14.2 µM (inactive) | 16.2 µM (inactive)
7 | Cc1ccc2c(c1)CC1(C2=O)[C@H](c2ccccc2)C2C(=O)c3ccc(C)cc3C2[C@H]1c1ccccc1 (some centres not stated) |  | > 100 µM (inactive) | > 100 µM (inactive) | > 100 µM (inactive) | > 100 µM (inactive) | > 100 µM (inactive) | > 100 µM (inactive) | > 100 µM (inactive) | > 100 µM (inactive) | > 100 µM (inactive) | > 100 µM (inactive) |  | > 100 µM (inactive) |  | > 100 µM | > 100 µM (inactive) | > 100 µM (inactive) | 43.1 µM (inactive) | 36.9 µM (inactive)
8 | COC(=O)/C=C(\C)CC(O)/C=C(\C)CCC=C(C)C (configuration not stated) | 16.2 µM (inactive) |  | 9.44 µM (inactive) |  |  | 31.7 µM (inactive) | 45 µM (inactive) | 49.7 µM (inactive) | 34.7 µM (inactive) | 38.5 µM (inactive) | 22.3 µM (inactive) | 19.5 µM (inactive) | 33.5 µM (inactive) |  | 58.6 µM | > 100 µM (inactive) | 40.4 µM (inactive) | 17.4 µM (inactive) | 23 µM (inactive)
9 | FC(F)(F)C12C34C=CC5(CCC6(C=CC1(CC3)O6)C52C(F)(F)F)O4 (configuration not stated) |  | > 100 µM (inactive) |  |  |  | 93.5 µM (inactive) | > 100 µM (inactive) | > 100 µM (inactive) | > 100 µM (inactive) |  | > 100 µM (inactive) |  |  |  |  | > 100 µM (inactive) | > 100 µM (inactive) | > 100 µM (inactive) | > 100 µM (inactive)
10 | COC(=O)C1CCCN1C(=O)C(Cc1cn(S(=O)(=O)c2ccc(C)cc2)cn1)NC(=O)OC(C)(C)C (configuration not stated) |  |  | > 100 µM (inactive) |  |  | > 100 µM (inactive) | > 100 µM (inactive) | > 100 µM (inactive) | > 100 µM (inactive) | > 100 µM (inactive) | > 100 µM (inactive) | > 100 µM (inactive) | > 100 µM (inactive) | > 100 µM (inactive) | > 100 µM | > 100 µM (inactive) | > 100 µM (inactive) | > 100 µM (inactive) | > 100 µM (inactive)
11 | C/C1=C\[C@H](C)C[C@H](C)OC(=O)C[C@H](c2ccc(O)cc2)NC(=O)[C@H](Cc2ccc(O)c(Br)c2)N(C)C(=O)[C@H](C)NC(=O)[C@@H](C)C1 | > 25 µM (inactive) | > 25 µM (inactive) | > 25 µM (inactive) |  | > 25 µM (inactive) |  | > 25 µM (inactive) |  | > 25 µM (inactive) | > 25 µM (inactive) | > 25 µM (inactive) | > 25 µM (inactive) | > 25 µM (inactive) | > 25 µM (inactive) | > 25 µM | > 25 µM (inactive) | > 25 µM (inactive) |  | > 25 µM (inactive)
12 | N=c1sc(N2CCOCC2)nn1CC(=O)c1ccccc1 | > 100 µM (inactive) | > 100 µM (inactive) | > 100 µM (inactive) | 76.4 µM (inactive) | > 100 µM (inactive) | > 100 µM (inactive) | > 100 µM (inactive) | > 100 µM (inactive) |  | > 100 µM (inactive) | > 100 µM (inactive) | > 100 µM (inactive) | > 100 µM (inactive) | > 100 µM (inactive) | > 100 µM | > 100 µM (inactive) | > 100 µM (inactive) | > 100 µM (inactive) | 
13 | COc1ccc(/C=C2\CN(C)Cc3c2nc(O)c(C#N)c3-c2ccc(OC)cc2)cc1 | 56.2 µM (inactive) | 26.7 µM (inactive) |  | 80.4 µM (inactive) | > 100 µM (inactive) | 24.3 µM (inactive) | > 100 µM (inactive) | 29.6 µM (inactive) |  | 39.7 µM (inactive) | 31.3 µM (inactive) | > 100 µM (inactive) | > 100 µM (inactive) | 21.7 µM (inactive) | 64.9 µM | 51.2 µM (inactive) | 32.6 µM (inactive) | 13.3 µM (inactive) | 
